According to PMC3175004 (Aquatic toxicology (Amsterdam, Netherlands), 2010):

Tests used:
beluga AHR [1] = molecular target: T1, beluga AHR (Delphinapterus leucas, UniProt Q95LD9); type: binding
T1 sequence (Q95LD9 11-845): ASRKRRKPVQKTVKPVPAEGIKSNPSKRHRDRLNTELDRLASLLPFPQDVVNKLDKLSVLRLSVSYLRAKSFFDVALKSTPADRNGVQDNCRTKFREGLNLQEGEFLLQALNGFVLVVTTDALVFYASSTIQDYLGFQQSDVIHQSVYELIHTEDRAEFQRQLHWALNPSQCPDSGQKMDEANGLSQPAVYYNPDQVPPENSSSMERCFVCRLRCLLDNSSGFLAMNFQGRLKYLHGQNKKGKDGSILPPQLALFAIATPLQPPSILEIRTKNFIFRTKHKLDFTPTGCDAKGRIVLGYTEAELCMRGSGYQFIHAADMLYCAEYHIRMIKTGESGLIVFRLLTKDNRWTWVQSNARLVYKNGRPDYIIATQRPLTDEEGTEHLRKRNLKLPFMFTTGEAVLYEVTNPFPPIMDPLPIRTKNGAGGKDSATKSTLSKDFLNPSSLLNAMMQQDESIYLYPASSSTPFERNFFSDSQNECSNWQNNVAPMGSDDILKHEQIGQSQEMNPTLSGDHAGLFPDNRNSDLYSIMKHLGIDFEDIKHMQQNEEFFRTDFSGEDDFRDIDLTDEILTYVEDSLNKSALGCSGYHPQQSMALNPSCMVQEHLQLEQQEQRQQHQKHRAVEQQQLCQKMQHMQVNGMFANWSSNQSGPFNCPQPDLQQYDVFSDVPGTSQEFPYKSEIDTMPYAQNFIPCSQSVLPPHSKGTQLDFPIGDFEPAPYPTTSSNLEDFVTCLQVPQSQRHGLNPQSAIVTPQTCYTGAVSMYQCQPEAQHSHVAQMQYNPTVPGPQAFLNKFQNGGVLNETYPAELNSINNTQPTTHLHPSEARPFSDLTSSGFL

[2] = system: mouse AHR (Ah^b-1 allele); type: binding; details: mouse REP vs rat REP
beluga AHR [3] = details: determined by saturation binding; ref Jensen and Hahn 2001; cited from earlier work
[4] = molecular target: T2, mouse AHR (Ah^b-1 allele) (Mus musculus, UniProt P30561); type: binding
T2 sequence (P30561 10-848): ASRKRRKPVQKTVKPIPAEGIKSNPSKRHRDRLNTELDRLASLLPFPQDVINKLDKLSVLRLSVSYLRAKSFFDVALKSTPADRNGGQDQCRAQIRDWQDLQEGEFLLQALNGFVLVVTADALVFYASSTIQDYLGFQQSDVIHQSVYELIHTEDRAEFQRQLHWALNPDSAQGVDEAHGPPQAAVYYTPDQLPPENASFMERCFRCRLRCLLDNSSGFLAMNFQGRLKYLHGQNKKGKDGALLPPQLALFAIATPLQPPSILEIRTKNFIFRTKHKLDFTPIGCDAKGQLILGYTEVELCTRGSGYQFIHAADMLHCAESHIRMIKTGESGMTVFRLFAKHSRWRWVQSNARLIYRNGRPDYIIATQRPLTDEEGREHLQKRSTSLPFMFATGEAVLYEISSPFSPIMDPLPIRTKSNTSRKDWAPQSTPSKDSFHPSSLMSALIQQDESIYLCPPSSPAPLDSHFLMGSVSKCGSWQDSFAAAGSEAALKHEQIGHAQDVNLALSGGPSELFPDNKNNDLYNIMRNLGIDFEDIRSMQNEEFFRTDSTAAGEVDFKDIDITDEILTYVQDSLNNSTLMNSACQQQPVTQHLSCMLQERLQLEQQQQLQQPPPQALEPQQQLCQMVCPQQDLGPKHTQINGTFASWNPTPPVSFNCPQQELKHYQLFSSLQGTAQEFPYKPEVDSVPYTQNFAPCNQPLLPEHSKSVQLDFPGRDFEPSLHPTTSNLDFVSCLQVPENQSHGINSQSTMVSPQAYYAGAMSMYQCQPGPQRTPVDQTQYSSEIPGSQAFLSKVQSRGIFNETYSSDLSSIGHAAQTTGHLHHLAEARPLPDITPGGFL

Clc1ccc(-c2cc(Cl)c(Cl)c(Cl)c2)cc1 [PCB-81]
fold higher binding REP compared to rat (beluga AHR [1]; beluga REP vs rat REP): 14 fold | fold higher binding REP compared to rat [2]: 28 fold

[3H]c1c(Cl)c(Cl)cc2c1Oc1cc(Cl)c(Cl)c([3H])c1O2 [[^3H]TCDD, 2,3,7,8-Tetrachloro[1,6-^3H]dibenzo-p-dioxin]
binding affinity for beluga AHR vs mouse AHR, fold higher (beluga AHR [3]): ~ 2 fold

Clc1ccc(-c2cc(Cl)c(Cl)cc2Cl)cc1Cl [PCB-118]
fold lower REP compared to rat (beluga AHR [1]; beluga REP vs rat REP): 15 fold | fold lower REP compared to rat [2]: 10 fold

Clc1cc2c(cc1Cl)Oc1cc(Cl)c(Cl)cc1O2 [TCDD, 2,3,7,8-tetrachlorodibenzo-p-dioxin, reference compound]
IC50 (beluga AHR [1]): 0.47 nM | Ki (beluga AHR [1]): 0.1 nM | Ki [4]: 0.36 nM

Clc1ccc(-c2ccc(Cl)c(Cl)c2Cl)c(Cl)c1Cl [PCB-128]
inhibition of [3H]TCDD binding reached by the curves (beluga AHR [1]; beluga AHR, maximum reached by competition curves): 90% | inhibition of [3H]TCDD binding reached by the curves ([4]; mouse AHR, maximum reached by competition curves): 80%
